Results published in publication PMC9851200, “Multiparameter phenotypic screening for endogenous TFEB and TFE3 translocation identifies novel chemical series modulating lysosome function” (Autophagy, 2022).

Experiments:
Assay type in all cases: binding
[1] = target: kinases (KINOMEscan panel) (Homo sapiens, UniProt P06241); settings: kinase FYN; NEW KINOMEscan
[2] = target: kinases (KINOMEscan panel) (Homo sapiens, UniProt Q9HAZ1); settings: kinase CLK4; NEW KINOMEscan
[3] = target: kinases (KINOMEscan panel) (Homo sapiens, UniProt O96017); settings: kinase CHEK2; NEW KINOMEscan
[4] = target: kinases (KINOMEscan panel) (Homo sapiens, UniProt P09619); settings: NEW KINOMEscan
[5] = target: kinases (KINOMEscan panel) (Homo sapiens, UniProt Q86Y07); settings: NEW KINOMEscan
[6] = target: T1, kinases (KINOMEscan panel) (Homo sapiens, UniProt P78356); settings: PIP4K2B; NEW KINOMEscan
T1 sequence (P78356 1-416): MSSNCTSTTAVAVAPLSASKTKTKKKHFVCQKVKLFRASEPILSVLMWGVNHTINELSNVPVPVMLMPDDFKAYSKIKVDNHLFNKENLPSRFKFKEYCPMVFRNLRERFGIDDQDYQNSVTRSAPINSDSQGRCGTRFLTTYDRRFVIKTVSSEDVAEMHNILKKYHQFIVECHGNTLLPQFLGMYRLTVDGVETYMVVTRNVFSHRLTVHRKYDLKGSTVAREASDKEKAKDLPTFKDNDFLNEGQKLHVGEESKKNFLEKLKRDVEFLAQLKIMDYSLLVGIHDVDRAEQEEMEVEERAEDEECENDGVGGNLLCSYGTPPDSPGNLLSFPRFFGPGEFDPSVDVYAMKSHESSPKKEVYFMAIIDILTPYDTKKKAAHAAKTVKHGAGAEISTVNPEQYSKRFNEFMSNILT

[7] = target: T2, kinases (KINOMEscan panel) (Homo sapiens, UniProt O15075); settings: NEW KINOMEscan
T2 sequence (O15075 1-740): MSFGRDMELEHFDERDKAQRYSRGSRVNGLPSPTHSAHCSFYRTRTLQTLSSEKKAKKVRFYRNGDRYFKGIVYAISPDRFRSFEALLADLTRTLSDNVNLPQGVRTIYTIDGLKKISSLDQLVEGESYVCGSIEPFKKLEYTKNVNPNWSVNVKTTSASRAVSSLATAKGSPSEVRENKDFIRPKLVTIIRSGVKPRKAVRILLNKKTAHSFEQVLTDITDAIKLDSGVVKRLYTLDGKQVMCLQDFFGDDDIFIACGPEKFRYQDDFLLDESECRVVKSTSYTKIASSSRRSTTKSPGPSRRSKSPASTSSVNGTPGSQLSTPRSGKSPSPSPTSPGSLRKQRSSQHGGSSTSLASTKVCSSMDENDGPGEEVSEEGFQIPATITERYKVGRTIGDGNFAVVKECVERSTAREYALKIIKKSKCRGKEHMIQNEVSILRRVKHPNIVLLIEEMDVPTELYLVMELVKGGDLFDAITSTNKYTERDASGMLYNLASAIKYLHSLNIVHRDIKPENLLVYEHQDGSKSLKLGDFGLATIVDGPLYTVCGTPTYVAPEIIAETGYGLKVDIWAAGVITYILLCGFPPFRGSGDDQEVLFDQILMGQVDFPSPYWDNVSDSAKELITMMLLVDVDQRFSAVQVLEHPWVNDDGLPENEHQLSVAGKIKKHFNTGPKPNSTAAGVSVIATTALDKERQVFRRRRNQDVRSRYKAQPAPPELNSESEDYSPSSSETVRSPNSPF

[8] = target: T3, kinases (KINOMEscan panel) (Homo sapiens, UniProt Q08881); settings: kinase ITK; NEW KINOMEscan
T3 sequence (Q08881 1-620): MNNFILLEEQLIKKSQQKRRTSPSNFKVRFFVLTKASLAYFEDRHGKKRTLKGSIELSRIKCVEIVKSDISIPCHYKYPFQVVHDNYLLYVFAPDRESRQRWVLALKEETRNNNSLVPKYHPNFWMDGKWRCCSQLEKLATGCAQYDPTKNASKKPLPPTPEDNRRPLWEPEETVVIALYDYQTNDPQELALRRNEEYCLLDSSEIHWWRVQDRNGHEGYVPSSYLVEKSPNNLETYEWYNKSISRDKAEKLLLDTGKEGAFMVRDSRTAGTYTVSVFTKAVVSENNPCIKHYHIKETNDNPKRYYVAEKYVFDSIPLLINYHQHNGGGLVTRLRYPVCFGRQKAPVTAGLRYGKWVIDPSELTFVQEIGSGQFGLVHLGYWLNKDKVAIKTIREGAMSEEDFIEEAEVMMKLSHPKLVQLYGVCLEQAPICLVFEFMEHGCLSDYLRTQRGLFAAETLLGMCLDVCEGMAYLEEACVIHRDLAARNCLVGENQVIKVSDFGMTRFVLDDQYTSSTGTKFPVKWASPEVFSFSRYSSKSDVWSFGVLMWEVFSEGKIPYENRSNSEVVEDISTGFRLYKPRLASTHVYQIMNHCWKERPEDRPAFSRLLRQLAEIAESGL

[9] = target: kinases (KINOMEscan panel) (Homo sapiens, UniProt O75460); settings: NEW KINOMEscan
[10] = target: kinases (KINOMEscan panel) (Homo sapiens, UniProt Q13554); settings: kinase CAMK2B; NEW KINOMEscan
[11] = target: kinases (KINOMEscan panel) (Homo sapiens, UniProt P15056); settings: BRAF; NEW KINOMEscan
kinases (KINOMEscan panel) (Homo sapiens, UniProt P15056), sequence (P15056 whole entry): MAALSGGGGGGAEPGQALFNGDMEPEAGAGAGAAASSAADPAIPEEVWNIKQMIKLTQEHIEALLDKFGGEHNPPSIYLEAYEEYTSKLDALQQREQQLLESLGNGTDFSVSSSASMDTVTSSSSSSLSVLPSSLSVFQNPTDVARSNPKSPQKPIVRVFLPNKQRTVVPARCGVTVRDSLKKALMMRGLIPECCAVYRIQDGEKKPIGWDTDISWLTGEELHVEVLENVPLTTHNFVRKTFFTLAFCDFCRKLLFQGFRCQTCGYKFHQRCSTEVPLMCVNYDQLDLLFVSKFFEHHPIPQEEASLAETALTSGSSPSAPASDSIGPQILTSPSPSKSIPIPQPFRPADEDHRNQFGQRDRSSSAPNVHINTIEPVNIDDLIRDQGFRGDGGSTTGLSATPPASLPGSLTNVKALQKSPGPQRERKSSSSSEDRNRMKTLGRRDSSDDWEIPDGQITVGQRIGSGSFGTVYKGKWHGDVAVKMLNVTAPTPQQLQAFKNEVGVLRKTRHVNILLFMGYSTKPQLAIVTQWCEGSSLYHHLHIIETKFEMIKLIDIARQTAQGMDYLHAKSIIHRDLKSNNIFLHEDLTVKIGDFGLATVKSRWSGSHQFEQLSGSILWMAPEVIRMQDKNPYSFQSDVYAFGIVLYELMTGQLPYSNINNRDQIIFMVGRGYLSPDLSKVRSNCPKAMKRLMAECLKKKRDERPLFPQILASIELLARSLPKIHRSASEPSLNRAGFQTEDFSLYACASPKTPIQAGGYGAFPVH

kinases (KINOMEscan panel) (Homo sapiens, UniProt P06241), sequence (P06241 whole entry): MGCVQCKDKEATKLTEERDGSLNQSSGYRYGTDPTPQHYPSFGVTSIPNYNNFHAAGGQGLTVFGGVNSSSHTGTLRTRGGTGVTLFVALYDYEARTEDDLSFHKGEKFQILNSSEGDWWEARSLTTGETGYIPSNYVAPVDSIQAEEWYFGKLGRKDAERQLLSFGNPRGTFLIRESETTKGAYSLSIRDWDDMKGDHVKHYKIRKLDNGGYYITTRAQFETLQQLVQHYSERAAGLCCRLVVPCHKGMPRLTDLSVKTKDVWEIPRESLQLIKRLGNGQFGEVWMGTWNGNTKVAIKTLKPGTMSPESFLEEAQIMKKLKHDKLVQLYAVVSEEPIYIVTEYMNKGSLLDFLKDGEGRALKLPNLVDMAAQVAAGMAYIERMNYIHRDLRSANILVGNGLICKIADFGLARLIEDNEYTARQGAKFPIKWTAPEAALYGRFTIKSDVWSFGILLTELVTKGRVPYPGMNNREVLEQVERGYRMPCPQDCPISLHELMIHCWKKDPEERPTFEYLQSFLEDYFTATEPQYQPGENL
kinases (KINOMEscan panel) (Homo sapiens, UniProt P09619), sequence (P09619 33-1106): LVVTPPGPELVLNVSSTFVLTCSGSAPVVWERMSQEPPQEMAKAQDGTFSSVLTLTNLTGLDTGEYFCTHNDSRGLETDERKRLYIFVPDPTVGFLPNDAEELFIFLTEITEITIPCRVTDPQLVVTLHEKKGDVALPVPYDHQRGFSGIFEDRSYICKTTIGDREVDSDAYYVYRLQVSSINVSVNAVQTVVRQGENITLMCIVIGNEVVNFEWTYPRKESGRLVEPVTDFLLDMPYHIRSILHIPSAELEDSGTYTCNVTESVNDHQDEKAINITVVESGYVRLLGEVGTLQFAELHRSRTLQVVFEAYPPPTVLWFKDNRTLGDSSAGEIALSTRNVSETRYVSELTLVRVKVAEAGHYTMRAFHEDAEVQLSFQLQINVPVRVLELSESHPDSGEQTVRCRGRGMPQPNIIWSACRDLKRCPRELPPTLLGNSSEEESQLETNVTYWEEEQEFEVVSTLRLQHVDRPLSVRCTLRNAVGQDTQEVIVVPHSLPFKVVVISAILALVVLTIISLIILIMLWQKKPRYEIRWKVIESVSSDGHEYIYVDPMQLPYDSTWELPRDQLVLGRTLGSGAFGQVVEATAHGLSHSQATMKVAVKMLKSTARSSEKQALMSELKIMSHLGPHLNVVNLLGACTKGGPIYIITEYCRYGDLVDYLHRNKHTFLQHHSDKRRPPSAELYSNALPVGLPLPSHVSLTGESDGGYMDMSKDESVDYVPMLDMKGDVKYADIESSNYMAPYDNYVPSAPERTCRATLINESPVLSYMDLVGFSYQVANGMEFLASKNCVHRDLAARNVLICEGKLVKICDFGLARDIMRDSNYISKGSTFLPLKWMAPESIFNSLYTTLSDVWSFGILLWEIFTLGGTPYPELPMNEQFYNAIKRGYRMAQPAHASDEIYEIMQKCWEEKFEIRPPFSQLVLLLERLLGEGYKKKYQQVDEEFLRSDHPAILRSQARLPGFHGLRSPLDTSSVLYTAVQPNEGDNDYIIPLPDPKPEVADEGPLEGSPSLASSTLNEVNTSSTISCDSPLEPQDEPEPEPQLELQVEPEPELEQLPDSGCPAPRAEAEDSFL
kinases (KINOMEscan panel) (Homo sapiens, UniProt Q13554), sequence (Q13554 whole entry): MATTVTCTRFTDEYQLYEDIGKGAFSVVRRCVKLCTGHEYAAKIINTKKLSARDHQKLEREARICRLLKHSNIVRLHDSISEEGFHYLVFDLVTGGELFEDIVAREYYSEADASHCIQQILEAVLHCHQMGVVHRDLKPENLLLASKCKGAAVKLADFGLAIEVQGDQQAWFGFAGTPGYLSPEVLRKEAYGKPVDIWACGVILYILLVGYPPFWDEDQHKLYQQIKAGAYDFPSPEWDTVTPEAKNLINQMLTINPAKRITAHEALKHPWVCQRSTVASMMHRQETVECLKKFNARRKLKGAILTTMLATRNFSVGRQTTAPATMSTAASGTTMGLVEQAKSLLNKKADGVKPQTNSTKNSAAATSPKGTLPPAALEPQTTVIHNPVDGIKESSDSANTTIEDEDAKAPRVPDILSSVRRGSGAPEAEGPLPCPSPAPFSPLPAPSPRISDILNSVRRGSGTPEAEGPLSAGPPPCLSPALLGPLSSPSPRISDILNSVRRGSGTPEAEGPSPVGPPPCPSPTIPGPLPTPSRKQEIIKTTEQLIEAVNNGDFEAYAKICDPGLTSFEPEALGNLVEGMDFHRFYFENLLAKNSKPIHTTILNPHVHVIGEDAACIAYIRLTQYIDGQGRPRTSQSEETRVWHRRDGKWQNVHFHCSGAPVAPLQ
kinases (KINOMEscan panel) (Homo sapiens, UniProt O96017), sequence (O96017 whole entry): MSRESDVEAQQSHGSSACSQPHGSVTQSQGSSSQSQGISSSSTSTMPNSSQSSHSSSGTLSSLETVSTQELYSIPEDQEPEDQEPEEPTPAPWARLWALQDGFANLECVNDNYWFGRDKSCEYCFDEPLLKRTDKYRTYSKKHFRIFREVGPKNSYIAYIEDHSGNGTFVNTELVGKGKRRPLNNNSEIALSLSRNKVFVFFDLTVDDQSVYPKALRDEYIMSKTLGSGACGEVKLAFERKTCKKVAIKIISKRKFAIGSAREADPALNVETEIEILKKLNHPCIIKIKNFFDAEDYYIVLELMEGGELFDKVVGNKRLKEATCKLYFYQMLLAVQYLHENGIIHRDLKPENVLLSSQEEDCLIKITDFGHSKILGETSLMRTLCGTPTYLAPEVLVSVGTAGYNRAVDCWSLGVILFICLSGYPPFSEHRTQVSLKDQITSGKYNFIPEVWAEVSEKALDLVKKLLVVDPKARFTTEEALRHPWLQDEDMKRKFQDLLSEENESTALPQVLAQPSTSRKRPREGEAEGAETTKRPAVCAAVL
kinases (KINOMEscan panel) (Homo sapiens, UniProt Q9HAZ1), sequence (Q9HAZ1 whole entry): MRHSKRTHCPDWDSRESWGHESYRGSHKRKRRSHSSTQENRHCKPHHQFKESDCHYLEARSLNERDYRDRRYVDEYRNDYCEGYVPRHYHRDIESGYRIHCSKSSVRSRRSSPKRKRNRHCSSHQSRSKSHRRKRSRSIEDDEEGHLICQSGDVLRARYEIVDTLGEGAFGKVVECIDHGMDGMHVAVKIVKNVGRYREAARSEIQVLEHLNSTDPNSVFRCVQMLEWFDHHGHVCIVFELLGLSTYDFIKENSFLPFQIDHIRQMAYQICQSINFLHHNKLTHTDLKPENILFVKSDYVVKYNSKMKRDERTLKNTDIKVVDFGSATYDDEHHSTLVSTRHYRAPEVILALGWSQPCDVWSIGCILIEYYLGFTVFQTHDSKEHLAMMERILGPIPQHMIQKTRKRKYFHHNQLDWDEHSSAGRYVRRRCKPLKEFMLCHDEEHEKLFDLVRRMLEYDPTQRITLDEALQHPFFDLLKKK
kinases (KINOMEscan panel) (Homo sapiens, UniProt Q86Y07), sequence (Q86Y07 whole entry): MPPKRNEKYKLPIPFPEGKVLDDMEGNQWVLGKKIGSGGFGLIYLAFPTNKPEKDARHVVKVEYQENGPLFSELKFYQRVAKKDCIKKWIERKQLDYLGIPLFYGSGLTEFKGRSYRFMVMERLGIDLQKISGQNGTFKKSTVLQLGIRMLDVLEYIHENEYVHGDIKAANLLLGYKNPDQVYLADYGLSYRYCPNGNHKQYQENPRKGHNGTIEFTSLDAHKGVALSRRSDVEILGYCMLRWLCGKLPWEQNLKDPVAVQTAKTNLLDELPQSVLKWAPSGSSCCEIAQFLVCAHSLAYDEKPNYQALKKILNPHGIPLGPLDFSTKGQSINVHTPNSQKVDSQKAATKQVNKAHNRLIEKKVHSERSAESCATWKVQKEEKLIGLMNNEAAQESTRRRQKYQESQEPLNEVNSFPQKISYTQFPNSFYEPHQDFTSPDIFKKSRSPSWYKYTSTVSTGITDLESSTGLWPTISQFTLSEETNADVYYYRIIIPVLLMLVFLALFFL

Row | SMILES | KINOMEscan FYN [1] | KINOMEscan CLK4 [2] | KINOMEscan CHEK2 [3] | KINOMEscan PDGFRB [4] | KINOMEscan VRK2 [5] | KINOMEscan PIP4K2B [6] | KINOMEscan DCLK1 [7] | KINOMEscan ITK [8] | KINOMEscan ERN1 [9] | KINOMEscan CAMK2B [10] | KINOMEscan BRAF [11]
1 | Cc1cccc(-c2nc(Nc3ccc4nn(C)cc4c3)c3ccccc3n2)n1 [NK167] | 0 | 22 | 0 | 19 | 11 | 0 | 49 | 0 | 0 | 0 | 0
2 | Cc1cccc(-c2nc(N(C)c3ccc4ncsc4c3)c3ccccc3n2)n1 [NK-161] | 0 | 10 | 0 | 21 | 25 | 0 | 36 | 14 | 11 | 0 | 0
